Data reported in US12227500B2, “Substituted pyrrolo[2,3-b]pyridines for suppressing toxic endoplasmic reticulum stress” (THE TRUSTEES OF COLUMBIA UNIVERSITY IN THE CITY OF NEW YORK, priority 2018, dated 2025).
Read-outs that look alike come from different tables or passages of the source.

Legend:
Assay in all cases: Radiolabeled ATP kinase assay, panel of 371 kinases (Table S6)
Assay type in all cases: biochemical
[1] = target: T1, panel of 371 human kinases (Homo sapiens, UniProt O15111); details: IKKa/CHUK; 0.1 μM; 10 μM ATP; read-out: % Enzyme Activity (relative to DMSO controls)
T1 construct: purchased Reaction Biology Corp
Text: (§1) ; FIG. 38C). […]. Further targeted analyses, such as genetic knock-down or knock-out, may be warranted to parse the role of these additional kinases in our model of neurodegeneration.

[2] = target: T2, panel of 371 human kinases (Homo sapiens, UniProt P54753); details: EPHB3; 0.1 μM; 10 μM ATP; read-out: % Enzyme Activity (relative to DMSO controls)
T2 construct: purchased Reaction Biology Corp
Text: as §1

[3] = target: T3, panel of 371 human kinases (Homo sapiens, UniProt O96017); details: CHK2; 0.1 μM; 10 μM ATP; read-out: % Enzyme Activity (relative to DMSO controls)
T3 construct: purchased Reaction Biology Corp
Text: as §1

[4] = target: T4, panel of 371 human kinases (Homo sapiens, UniProt Q12852); details: DLK/MAP3K12; 0.1 μM; 10 μM ATP; read-out: % Enzyme Activity (relative to DMSO controls)
T4 construct: purchased Reaction Biology Corp
Text: as §1

[5] = target: T5, panel of 371 human kinases (Homo sapiens, UniProt Q96PY6); details: NEK1; 0.1 μM; 10 μM ATP; read-out: % Enzyme Activity (relative to DMSO controls)
T5 construct: purchased Reaction Biology Corp
Text: as §1

[6] = target: T6, panel of 371 human kinases (Homo sapiens, UniProt O95819); details: for remaining activity at 0.1 µM: HGK/MAP4K4, 10 μM ATP, read-out: % Enzyme Activity (relative to DMSO controls)
T6 construct: purchased Reaction Biology Corp
Text: as §1

[7] = target: T7, panel of 371 human kinases (Homo sapiens, UniProt Q8NEV4); details: MYO3A; 0.1 μM; 10 μM ATP; read-out: % Enzyme Activity (relative to DMSO controls)
T7 construct: purchased Reaction Biology Corp
Text: as §1

[8] = target: T8, panel of 371 human kinases (Homo sapiens, UniProt P49759); details: CLK1; 0.1 μM; 10 μM ATP; read-out: % Enzyme Activity (relative to DMSO controls)
T8 construct: purchased Reaction Biology Corp
Text: as §1

[9] = target: T9, panel of 371 human kinases (Homo sapiens, UniProt Q6P5Z2); details: PKN3/PRK3; 0.1 μM; 10 μM ATP; read-out: % Enzyme Activity (relative to DMSO controls)
T9 construct: purchased Reaction Biology Corp
Text: as §1

[10] = target: T10, panel of 371 human kinases (Homo sapiens, UniProt Q8N752); details: CK1a1L; 0.1 μM; 10 μM ATP; read-out: % Enzyme Activity (relative to DMSO controls)
T10 construct: purchased Reaction Biology Corp
Text: as §1

[11] = target: T11, panel of 371 human kinases (Homo sapiens, UniProt Q8TD19); details: NEK9; 0.1 μM; 10 μM ATP; read-out: % Enzyme Activity (relative to DMSO controls)
T11 construct: purchased Reaction Biology Corp
Text: as §1

[12] = target: T12, panel of 371 human kinases (Homo sapiens, UniProt Q13464); details: ROCK1; 0.1 μM; 10 μM ATP; read-out: % Enzyme Activity (relative to DMSO controls)
T12 construct: purchased Reaction Biology Corp
Text: as §1

[13] = target: T13, panel of 371 human kinases (Homo sapiens, UniProt Q99683); details: ASK1/MAP3K5; 0.1 μM; 10 μM ATP; read-out: % Enzyme Activity (relative to DMSO controls)
T13 construct: purchased Reaction Biology Corp
Text: as §1

[14] = target: T14, panel of 371 human kinases (Homo sapiens, UniProt Q00535); details: 0.1 μM, 10 μM ATP, read-out: % Enzyme Activity (relative to DMSO controls)
T14 construct: purchased Reaction Biology Corp
Text: as §1

[15] = target: T15, panel of 371 human kinases (Homo sapiens, UniProt P50613); details: CDK7/cyclin H; 0.1 μM; 10 μM ATP; read-out: % Enzyme Activity (relative to DMSO controls)
T15 construct: purchased Reaction Biology Corp
Text: as §1

[16] = target: T16, panel of 371 human kinases (Homo sapiens, UniProt Q56UN5); details: VSK4/MAP3K19; 0.1 μM; 10 μM ATP; read-out: % Enzyme Activity (relative to DMSO controls)
T16 construct: purchased Reaction Biology Corp
Text: as §1

[17] = target: T17, panel of 371 human kinases (Homo sapiens, UniProt Q9HBH9); details: MNK2; 0.1 μM; 10 μM ATP; read-out: % Enzyme Activity (relative to DMSO controls)
T17 construct: purchased Reaction Biology Corp
Text: as §1

[18] = target: T18, panel of 371 human kinases (Homo sapiens, UniProt Q13873); details: BMPR2; 0.1 μM; 10 μM ATP; read-out: % Enzyme Activity (relative to DMSO controls)
T18 construct: purchased Reaction Biology Corp
Text: as §1

[19] = target: T19, panel of 371 human kinases (Homo sapiens, UniProt Q13043); details: MST1/STK4; 0.1 μM; 10 μM ATP; read-out: % Enzyme Activity (relative to DMSO controls)
T19 construct: purchased Reaction Biology Corp
Text: as §1

[20] = target: T20, panel of 371 human kinases (Homo sapiens, UniProt Q9HBY8); details: SGK2; 0.1 μM; 10 μM ATP; read-out: % Enzyme Activity (relative to DMSO controls)
T20 construct: purchased Reaction Biology Corp
Text: as §1

[21] = target: T21, panel of 371 human kinases (Homo sapiens, UniProt Q8WTQ7); details: GRK7; 0.1 μM; 10 μM ATP; read-out: % Enzyme Activity (relative to DMSO controls)
T21 construct: purchased Reaction Biology Corp
Text: as §1

[22] = target: T22, panel of 371 human kinases (Homo sapiens, UniProt Q6P3R8); details: NEK5; 0.1 μM; 10 μM ATP; read-out: % Enzyme Activity (relative to DMSO controls)
T22 construct: purchased Reaction Biology Corp
Text: as §1

[23] = target: T23, panel of 371 human kinases (Homo sapiens, UniProt Q86YV6); details: MYLK4; 0.1 μM; 10 μM ATP; read-out: % Enzyme Activity (relative to DMSO controls)
T23 construct: purchased Reaction Biology Corp
Text: as §1

[24] = target: T24, panel of 371 human kinases (Homo sapiens, UniProt Q16288); details: TRKC; 0.1 μM; 10 μM ATP; read-out: % Enzyme Activity (relative to DMSO controls)
T24 construct: purchased Reaction Biology Corp
Text: as §1

T14 sequence (Q00535 whole entry): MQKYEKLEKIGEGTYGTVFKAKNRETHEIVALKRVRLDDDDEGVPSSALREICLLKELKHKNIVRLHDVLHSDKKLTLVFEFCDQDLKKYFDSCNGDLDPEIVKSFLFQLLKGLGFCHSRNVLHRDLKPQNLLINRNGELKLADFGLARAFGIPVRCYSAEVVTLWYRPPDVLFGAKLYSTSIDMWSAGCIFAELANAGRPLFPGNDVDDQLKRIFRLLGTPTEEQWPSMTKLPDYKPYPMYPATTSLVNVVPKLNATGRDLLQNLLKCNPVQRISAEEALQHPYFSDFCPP
T6 sequence (O95819 whole entry): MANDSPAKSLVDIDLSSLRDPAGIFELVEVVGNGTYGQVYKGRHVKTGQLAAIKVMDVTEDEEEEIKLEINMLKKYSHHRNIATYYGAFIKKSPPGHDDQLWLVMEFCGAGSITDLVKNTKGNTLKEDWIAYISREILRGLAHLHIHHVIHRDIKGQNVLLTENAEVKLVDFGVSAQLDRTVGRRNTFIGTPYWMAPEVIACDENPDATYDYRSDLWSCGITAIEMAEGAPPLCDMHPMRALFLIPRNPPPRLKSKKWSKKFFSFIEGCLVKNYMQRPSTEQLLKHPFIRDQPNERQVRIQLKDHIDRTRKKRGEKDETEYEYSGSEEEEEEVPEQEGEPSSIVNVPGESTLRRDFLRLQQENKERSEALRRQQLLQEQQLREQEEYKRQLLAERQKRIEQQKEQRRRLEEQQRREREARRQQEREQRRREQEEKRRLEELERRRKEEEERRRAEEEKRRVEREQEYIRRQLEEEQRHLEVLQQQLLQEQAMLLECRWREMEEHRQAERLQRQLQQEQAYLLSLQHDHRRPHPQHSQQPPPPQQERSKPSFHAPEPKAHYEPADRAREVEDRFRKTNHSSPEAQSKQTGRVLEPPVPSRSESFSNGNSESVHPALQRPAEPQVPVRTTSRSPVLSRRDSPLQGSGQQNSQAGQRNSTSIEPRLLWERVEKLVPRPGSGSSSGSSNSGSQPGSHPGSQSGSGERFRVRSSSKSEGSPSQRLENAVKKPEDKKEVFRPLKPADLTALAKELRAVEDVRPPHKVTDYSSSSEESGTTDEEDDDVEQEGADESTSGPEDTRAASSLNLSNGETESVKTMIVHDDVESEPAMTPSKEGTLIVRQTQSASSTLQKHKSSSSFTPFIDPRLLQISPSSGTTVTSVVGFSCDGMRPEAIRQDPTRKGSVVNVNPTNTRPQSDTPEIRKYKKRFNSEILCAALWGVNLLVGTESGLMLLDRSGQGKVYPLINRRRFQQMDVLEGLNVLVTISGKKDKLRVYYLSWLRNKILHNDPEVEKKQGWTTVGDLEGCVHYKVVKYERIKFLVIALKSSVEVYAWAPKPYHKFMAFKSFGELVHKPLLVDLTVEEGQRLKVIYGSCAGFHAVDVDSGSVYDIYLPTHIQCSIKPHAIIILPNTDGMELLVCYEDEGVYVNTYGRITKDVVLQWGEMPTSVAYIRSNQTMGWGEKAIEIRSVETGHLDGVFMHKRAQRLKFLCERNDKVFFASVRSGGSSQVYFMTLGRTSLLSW
T13 sequence (Q99683 whole entry): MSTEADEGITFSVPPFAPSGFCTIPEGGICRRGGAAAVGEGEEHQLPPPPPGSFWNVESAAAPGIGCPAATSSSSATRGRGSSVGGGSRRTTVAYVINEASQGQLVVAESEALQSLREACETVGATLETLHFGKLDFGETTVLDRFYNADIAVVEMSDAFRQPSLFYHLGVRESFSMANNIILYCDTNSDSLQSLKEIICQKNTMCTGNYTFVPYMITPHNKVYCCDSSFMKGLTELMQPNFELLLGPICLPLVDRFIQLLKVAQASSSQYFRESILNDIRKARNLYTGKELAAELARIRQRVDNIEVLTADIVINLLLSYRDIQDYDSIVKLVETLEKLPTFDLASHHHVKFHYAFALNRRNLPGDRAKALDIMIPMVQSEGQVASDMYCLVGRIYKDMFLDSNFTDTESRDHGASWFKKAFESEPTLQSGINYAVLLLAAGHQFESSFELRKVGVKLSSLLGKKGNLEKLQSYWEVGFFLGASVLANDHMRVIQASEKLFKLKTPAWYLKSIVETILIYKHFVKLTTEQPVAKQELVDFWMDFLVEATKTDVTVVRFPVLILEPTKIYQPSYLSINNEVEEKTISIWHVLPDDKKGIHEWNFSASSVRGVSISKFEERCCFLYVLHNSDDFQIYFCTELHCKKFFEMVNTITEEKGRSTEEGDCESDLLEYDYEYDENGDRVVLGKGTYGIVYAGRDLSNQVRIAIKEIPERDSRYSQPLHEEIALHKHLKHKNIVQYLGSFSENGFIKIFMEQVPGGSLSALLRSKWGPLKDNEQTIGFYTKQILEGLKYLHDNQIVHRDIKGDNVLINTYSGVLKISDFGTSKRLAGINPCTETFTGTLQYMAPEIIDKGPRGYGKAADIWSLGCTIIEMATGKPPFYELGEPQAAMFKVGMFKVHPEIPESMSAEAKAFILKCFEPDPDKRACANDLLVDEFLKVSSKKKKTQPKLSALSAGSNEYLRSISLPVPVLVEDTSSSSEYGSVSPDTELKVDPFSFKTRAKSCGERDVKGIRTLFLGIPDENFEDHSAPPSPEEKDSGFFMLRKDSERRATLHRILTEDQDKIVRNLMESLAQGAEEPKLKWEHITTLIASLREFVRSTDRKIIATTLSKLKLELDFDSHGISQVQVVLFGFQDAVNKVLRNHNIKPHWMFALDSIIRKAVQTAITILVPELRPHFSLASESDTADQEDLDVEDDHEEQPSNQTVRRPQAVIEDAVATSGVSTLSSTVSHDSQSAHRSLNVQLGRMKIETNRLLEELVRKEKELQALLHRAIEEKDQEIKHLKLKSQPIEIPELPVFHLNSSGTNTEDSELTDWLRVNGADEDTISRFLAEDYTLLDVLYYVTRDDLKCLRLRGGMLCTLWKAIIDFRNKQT
T9 sequence (Q6P5Z2 whole entry): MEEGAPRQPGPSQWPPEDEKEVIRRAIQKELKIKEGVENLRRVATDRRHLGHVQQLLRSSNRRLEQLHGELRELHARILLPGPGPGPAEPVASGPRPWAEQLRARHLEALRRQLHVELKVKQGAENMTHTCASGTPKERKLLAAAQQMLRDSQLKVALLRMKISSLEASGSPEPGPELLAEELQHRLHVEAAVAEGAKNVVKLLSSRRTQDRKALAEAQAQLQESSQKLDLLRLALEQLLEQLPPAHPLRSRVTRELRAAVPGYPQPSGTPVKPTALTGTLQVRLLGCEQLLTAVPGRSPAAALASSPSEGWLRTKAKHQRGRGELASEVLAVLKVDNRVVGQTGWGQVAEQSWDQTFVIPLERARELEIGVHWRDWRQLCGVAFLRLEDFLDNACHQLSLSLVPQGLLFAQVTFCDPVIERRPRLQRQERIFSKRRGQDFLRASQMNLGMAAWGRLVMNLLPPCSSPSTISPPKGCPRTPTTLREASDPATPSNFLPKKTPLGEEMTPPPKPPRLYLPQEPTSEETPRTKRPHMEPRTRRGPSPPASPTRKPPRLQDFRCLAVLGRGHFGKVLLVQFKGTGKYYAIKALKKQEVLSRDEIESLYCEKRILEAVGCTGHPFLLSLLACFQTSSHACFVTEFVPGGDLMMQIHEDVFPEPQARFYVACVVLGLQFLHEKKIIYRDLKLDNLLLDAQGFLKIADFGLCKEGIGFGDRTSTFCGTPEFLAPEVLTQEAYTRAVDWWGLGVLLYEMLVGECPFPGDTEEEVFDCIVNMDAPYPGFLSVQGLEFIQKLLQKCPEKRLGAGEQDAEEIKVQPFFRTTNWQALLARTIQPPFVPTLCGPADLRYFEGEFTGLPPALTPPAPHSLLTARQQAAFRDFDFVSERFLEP
T1 sequence (O15111 whole entry): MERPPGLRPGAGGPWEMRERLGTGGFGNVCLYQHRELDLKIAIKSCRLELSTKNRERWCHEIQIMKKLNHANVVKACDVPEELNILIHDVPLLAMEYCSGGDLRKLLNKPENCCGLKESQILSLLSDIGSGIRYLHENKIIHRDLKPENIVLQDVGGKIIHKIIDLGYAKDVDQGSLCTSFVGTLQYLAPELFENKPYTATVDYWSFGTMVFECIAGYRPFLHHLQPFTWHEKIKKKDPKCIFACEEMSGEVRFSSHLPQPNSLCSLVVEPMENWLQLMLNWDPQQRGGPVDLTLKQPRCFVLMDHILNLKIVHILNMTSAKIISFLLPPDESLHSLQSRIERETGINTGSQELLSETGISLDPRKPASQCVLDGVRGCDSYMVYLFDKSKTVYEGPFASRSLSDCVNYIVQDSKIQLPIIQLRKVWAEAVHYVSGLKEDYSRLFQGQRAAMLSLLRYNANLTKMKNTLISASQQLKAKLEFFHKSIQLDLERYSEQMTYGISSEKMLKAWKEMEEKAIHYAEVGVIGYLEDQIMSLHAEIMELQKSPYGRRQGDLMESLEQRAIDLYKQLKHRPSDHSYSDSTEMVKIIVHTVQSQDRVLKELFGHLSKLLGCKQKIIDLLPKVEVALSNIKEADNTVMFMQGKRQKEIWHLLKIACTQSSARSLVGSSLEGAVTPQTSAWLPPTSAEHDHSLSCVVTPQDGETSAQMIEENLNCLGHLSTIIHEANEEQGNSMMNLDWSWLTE
T21 sequence (Q8WTQ7 whole entry): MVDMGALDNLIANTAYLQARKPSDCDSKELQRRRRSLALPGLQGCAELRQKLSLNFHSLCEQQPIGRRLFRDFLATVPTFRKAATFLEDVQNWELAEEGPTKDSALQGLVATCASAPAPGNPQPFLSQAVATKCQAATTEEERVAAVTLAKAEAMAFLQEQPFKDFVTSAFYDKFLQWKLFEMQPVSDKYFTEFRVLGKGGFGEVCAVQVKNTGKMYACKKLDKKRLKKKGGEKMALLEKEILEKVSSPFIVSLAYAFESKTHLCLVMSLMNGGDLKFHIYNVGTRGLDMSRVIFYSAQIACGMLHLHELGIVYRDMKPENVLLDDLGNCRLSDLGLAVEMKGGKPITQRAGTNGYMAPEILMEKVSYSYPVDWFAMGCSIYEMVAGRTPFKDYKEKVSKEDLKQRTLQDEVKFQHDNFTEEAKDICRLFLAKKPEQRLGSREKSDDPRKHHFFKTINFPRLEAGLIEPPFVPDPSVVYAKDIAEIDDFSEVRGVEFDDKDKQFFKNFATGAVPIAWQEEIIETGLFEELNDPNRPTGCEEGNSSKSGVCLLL

| SMILES | remaining activity at 0.1 µM [1] [%] | remaining activity at 0.1 µM [2] [%] | remaining activity at 0.1 µM [3] [%] | remaining activity at 0.1 µM [4] [%] | remaining activity at 0.1 µM [5] [%] | remaining activity at 0.1 µM [6] [%] | remaining activity at 0.1 µM [7] [%] | remaining activity at 0.1 µM [8] [%] | remaining activity at 0.1 µM [9] [%] | remaining activity at 0.1 µM [10] [%] | remaining activity at 0.1 µM [11] [%] | remaining activity at 0.1 µM [12] [%] | remaining activity at 0.1 µM [13] [%] | remaining activity at 0.1 µM ([14]; CDK5/p25) [%] | remaining activity at 0.1 µM ([14]; CDK5/p35) [%] | remaining activity at 0.1 µM [15] [%] | remaining activity at 0.1 µM [16] [%] | remaining activity at 0.1 µM [17] [%] | remaining activity at 0.1 µM [18] [%] | remaining activity at 0.1 µM [19] [%] | also measured |
| --- | --- | --- | --- | --- | --- | --- | --- | --- | --- | --- | --- | --- | --- | --- | --- | --- | --- | --- | --- | --- | --- |
| CN1CCN(Cc2ccc(-c3cnc4[nH]cc(-c5ccc6[nH]ccc6c5)c4c3)cc2)CC1 [Compound 1, 3-(1H-Indol-5-yl)-5-(4-((4-methylpiperazin-1-yl)methyl)phenyl)-1H-pyrrolo[2,3-b]pyridine, reference compound] | 96.8 | 107 | 85.2 | 90.8 | 80.1 | 20.2 | 88.6 | 58.8 | 84.7 | 94.8 | 101 | 94.7 | 103 | 79.7 | 81.3 | 91.4 | 101 | 97.6 | 90.5 | 80 | remaining activity at 0.1 µM [20]: 92.8%; remaining activity at 0.1 µM [21]: 101%; remaining activity at 0.1 µM [22]: 87.1%; remaining activity at 0.1 µM [23]: 53.6%; remaining activity at 0.1 µM [24]: 19.4% |
| OCCN1CCN(Cc2ccc(-c3cnc4[nH]cc(-c5cccc(Cl)c5)c4c3)cc2)CC1 [Compound 12k, 2-(4-(4-(3-(3-Chlorophenyl)-1H-pyrrolo[2,3-b]pyridin-5-yl)benzyl)piperazin-1-yl)ethan-1-ol] | 101 | 101 | 93.5 | 82.8 | 76.5 | 1.35 | 79.1 | 68.6 | 93.7 | 107 | 95.1 | 79.2 | 95.7 | 75.9 | 79.2 | 89.2 | 107 | 65.2 | 90.3 | 75.9 | fold change in HGK activity following 12k exposure relative to 1 ([6]; 0.025 μM): 14.92 fold; remaining activity at 0.1 µM [20]: 96.7%; remaining activity at 0.1 µM [21]: 97.1%; remaining activity at 0.1 µM [22]: 92.4%; remaining activity at 0.1 µM [23]: 37.2%; remaining activity at 0.1 µM [24]: 52.2% |
